Measured values reported in US20210196738A1, “PHARMACEUTICAL COMPOSITION COMPRISING A COLLOIDAL DISPERSION AND A THERAPEUTIC AGENT AND METHODS AND USES THEREOF” (priority 2017, published 2021).
Where two headings read alike, the source gives them in different places.

Experiments:
[1] = system: E. coli K-12 MG1655 (DA4201); assay: AgSol-antibiotic synergy screening assay / MIC (Ag/Antibiotic screen); format: cell-based, Escherichia coli; details: for MIC: Escherichia coli, MG1655, antibiotic alone
Method: (§1) The MIC (Minimal Inhibitory Concentration) of a bacterium to a certain antimicrobial agent gives a quantitative estimate of the susceptibility. MIC is defined as the lowest concentration of antimicrobial agent required to inhibit growth of the organism. The principle is simple: Agar plates, tubes or microtitre trays with two-fold dilutions of antibiotics are inoculated with a standardized inoculum of the bacteria and incubated under standardized conditions following NCCLS guidelines. The next day, the MIC is recorded as the lowest concentration of antimicrobial agent with no visible growth. The MIC informs you about the degree of resistance and might give you important information about the resistance mechanism and the resistance genes involved. MIC-determination performed as agar dilution is regarded as the gold standard for susceptibility testing (Source: Global Salm-Surv—A global Salmonella surveillance and laboratory support project of the World Health Organization (4th Ed. April 2002, modified November 2010))
(§2) The Minimum Inhibitory Concentration (MIC) of nanosilver (silver) was determined by two-fold dilution series in NaCl free Nutrient Broth (Sigma-Aldrich) in 15 ml screw cap tubes. The tubes were incubated in the dark over night at 37° C. without shaking. The MIC was determined as the lowest concentration of nanosilver (silver) at which no visible growth was observed.
(§3) Antibiotic stock solutions were serially diluted in 2-fold steps in pre-warmed (37° C.) nutrient broth (NB) to prepare an antibiotic concentration gradient above and below the minimal inhibitory concentration (MIC) of antibiotic (Table 4). 50 μl of prepared dilutions were aliquoted into a 96-well round bottom plate (Nunc, Thermo Fisher) for the screening assay.
(§4) Silver formulation (AgSol1000 (particles with 19 Ag per silica particle), AgSol300 (particles with 6 Ag per silica particle, AgNO3), aluminum coated silica beads (159/500 (silica particles with aluminium silicate coating)) and uncoated silica beads (15/500) were diluted in pre-warmed (37° C.) NB. Bindzil®15/500 is an unmodified silica sol, whereas Bindzil®159/500 is a aluminosilicate modified silica sol. Bindzil® is sold by Akzo Nobel AB.
(§5) 40 μl of the prepared dilutions were added to the 96-well plate containing antibiotic gradient to reach the final silver concentration of ¼×MICAgSol (silver) (specific for the microorganism used) (Table 5).
(§6) Overnight (16-20 h) cultures of 3 biological replicates of the following microorganisms E. coli K-12 MG1655 (DA4201), E. coli K-12 MG1655 rpsL K42N (DA49828), Pseudomonas aeruginosa PAO1 (DA6215) or Staphylococcus aureus USA300 JE2 (DA28823) were grown in NB till saturation (37° C. incubator with 190 rpm shaking). Cultures were diluted in NB to 10^7 CFU/ml and 10 μl of the dilution were added to the 96-well plate containing antibiotic gradient and silver formulations or the bead controls to reach the final concentration of 10^5 CFU/well in 100 μl total volume per well. 3 technical replicates (3 wells) of specific antibiotic concentration in combination with silver and microorganism were used. A control plate containing bacterial cells mixed with only antibiotic gradient was always included too.
(§7) The prepared plate was incubated in 37° C. incubator without shaking in the dark for 16-20 h and the optical density (OD620) of each well was measured in plate reader Multiscan FC (Thermo Fisher).

[2] = system: S. enterica Typhimurium LT2; assay: AgSol-antibiotic synergy screening assay; format: cell-based, Salmonella enterica; details: Salmonella; FIGS. 2A-2F
Method: as §3, §4, §5, §7

[3] = system: E. coli K-12 MG1655 rpsL K42N (DA49828); assay: AgSol-antibiotic synergy screening assay / MIC; format: cell-based; details: Escherichia coli
Method: as §1, §2, §3, §4, §5, §6, §7

[H]/N=C(/N)N[C@H]1[C@H](O)[C@@H](O)[C@H](O[C@@H]2O[C@@H](C)[C@](O)(C=O)[C@H]2O[C@@H]2O[C@@H](CO)[C@H](O)[C@@H](O)[C@@H]2NC)[C@@H](N/C(N)=N\[H])[C@@H]1O [Streptomycin]
MIC ([1]; E. coli (DA4201), values used for antibiotic gradient, read-out: MIC): 0.5 µg/mL | MIC ([1]; nutrient broth, read-out: Antibiotic MIC, NB): 0.5 µg/mL | fold increase in effect with AgSol vs antibiotic alone ([1]; Table 6, E. coli): 17 fold | Antibiotic MIC, NB + AgSol1000 ([1]; antibiotic in combination with AgSol1000 at ¼ × MIC silver, nutrient broth): 0.03 µg/mL | Fold change (antibiotic MIC, NB vs NB + AgSol1000) ([1]; dash = MIC unchanged): 17x | synergistic antibacterial effect of antibiotic in combination with AgSol ([1]; vs antibiotic alone, E. coli MG 1655 K-12): markedly improved synergistic effect | synergetic effect of antibiotic in combination with silver [2]: stronger synergetic effect | MIC [3]: 2000 µg/mL
